The source of these data is PMC5594551, “Heterogeneous drug penetrance of veliparib and carboplatin measured in triple negative breast tumors” (Breast Cancer Research : BCR, 2017).

Read-outs that look alike come from different tables or passages of the source.

A short description of data set [1]: Carboplatin one-compartment plasma PK model in mice. The data set is classed as in vivo, beige SCID mice. The procedure: The PK of carboplatin in mice was assessed using a one-compartment model with bolus intravenous injection.
e) Supplements of the PK-model development.

The test system of a further data set is PARP1. The settings on record: read-out: IC50 for PARP1 inhibition; ref [3], [31]; cited from earlier work.
A further data set relates to TNBC. Details: method as in ref [4] = [4]; 4. Rugo HS, et al. Veliparib/carboplatin plus standard neoadjuvant therapy for high-risk breast cancer: first efficacy results from the I-SPY 2 TRIAL [abstract]. Cancer Res. 2013;73:Abstract nr S5_02. As to conditions: veliparib 50 mg BID combined with carboplatin, neoadjuvant; ref [4]; cited from earlier work.
Data set [2] can be described thus: Veliparib plasma and tumor PK model (NONMEM) in xenograft mice. As to conditions: for Kp: beige SCID (Fox Chase).
Experimental: PK-analyses were performed using nonlinear mixed-effects modeling (NONMEM VII Software, ICON Development Solutions, San Antonio, TX, USA), using the first-order conditional estimation with interaction (FOCEI) method. The model-building procedure was guided by the likelihood ratio test, diagnostic plots and internal model validation techniques, including visual predictive checks and bootstrap analysis. The effect of dose, concentration and cell source on TNBC xenograft tissue concentrations was assessed. The variability between animals was assessed using two components: one consistent difference common to all TNBC xenograft tissue samples from left and right mouse tumor and one mouse-specific difference (RRES) to understand the inter-individual and intra-individual variability.
Intra-animal error tumor 28% 21% 19%
proportional residual error plasma 13% 42% 8%
proportional residual error tumor 23% 19% 7%
proportional residual error plasma 41% 22% 9%
On the set-up of data set [3]: method as in PMID 19526240. The settings on record: ref [32]; cited from earlier work.
The next data set concerns PARP. As to conditions: read-out: PARP trapping IC50; cited from earlier work.
A further data set has as its system HCC70. As to conditions: ref [23]; cited from earlier work.
A short description of data set [4]: Veliparib quantified by LC-MS in plasma, TNBC xenograft tumor, muscle and liver of mice. The data set is classed as in vivo, beige SCID mice. The settings on record: for Median conc. (RSE %) / concentration at 3 h: LC-MS; for concentration at 3 h: beige SCID (Fox Chase), mouse, read-out: Median conc. (RSE %). Here is the method: Forty-one beige DF mice with severe combined immunodeficiency (SCID) (Fox Chase, strain R035948:1) were implanted with 10^6 MDA-MB-231 (N = 10), HCC70 N = 21) or MDA-MB-436 (N = 10) TNBC cells obtained from the ATCC bilaterally in the mammary fat pads (Fig. 1). When the TNBC xenograft tissue size exceeded 200 mm^3, the mice were randomized across the treatment cohorts. Animals were randomized into veliparib low dose (20 mg/kg), veliparib high dose (60 mg/kg) or placebo + C, introduced via oral gavage three times daily for 3 days (all but the two DCE-MRI study mice). Carboplatin at 60 mg/kg was administered intravenously on day 1 and day 2. Blood samples (50 μL) were obtained at day 2 in ethylenediaminetetraacetic acid (EDTA) containing vials at 0.6, 3 and 5 h after veliparib and carboplatin dose in 15 mice (all xenograft models, Fig. 1). The procedures were approved by the Institutional Animal (IACUC AN092211-01D).
Thirty-nine mice were euthanized approximately 3 h after the last dose of veliparib and 24 h after the last dose of carboplatin; two mice used in the DCE-MRI pilot were euthanized 1.5 h after single-dose administration of veliparib and carboplatin (Fig. 1). Bilateral xenograft tumors and liver and muscle (quadriceps) tissues were harvested. Tissues were cut into three pieces and either embedded in optimum cutting temperature (OCT) formulation or were directly snap frozen in liquid-nitrogen-cooled isopentane and stored at − 80 °C until analysis. […] A separate fresh-frozen portion of each tissue per animal was ground for quantification of veliparib and carboplatin by LC-MS. Method development and details of the techniques are described in Additional file 1a-c. […]
c) Technical aspects of the LC-MS method development.
Plasma samples (50 μl ) were prepared using protein precipitation with acetonitrile. Small tumor samples (average 44 mg) were pulverized using Biopulverizer R (Biospec Bartlesville, OK, USA). Volume and weight of the pulverized tumor was determined. Veliparib was then extracted using cell lysis buffer (Cell Signaling Technology, Danvers, MA,USA), complemented with Halt Protease & Phosphatase (ThermoScientific, Atlanta, GA,USA). Protein precipitation of the tissue lysates was performed with acetonitrile. Oxaliplatin (Tzchem, Framingham, MA,USA) and iniparib (Sigma-Aldrich, Milwaukee, USA) were used as internal standards.
Veliparib/carboplatin quantification:
Carboplatin and veliparib were measured using LC-MS (Applied Biosystem Systems 3200 LC-MS/MS, Toronto, Canada), with electrospray ionization (ESI), using a Xterra® MS C18 3.5 µm column (Waters, Milford, MA, USA). The mobile phase contained 50:50 methanol and water with 0.1%, formic acid.
Concentration of veliparib in tissues were calculated in mg/g and transferred to mg/L by estimating the average density of the livers, muscles and tumors.
Figure S9: Example graph of mass spectrum of veliparib and carboplatin and the internal standards in plasma […]
Method development/validation
The limit of quantification was 15 ng/ml for veliparib and 156 ng/ml for carboplatin. The calibration curves […]
Figure S10) Repetition quantification from two tissue sections of the same animal to show consistence of results when repeating veliparib extraction (performed by LCMS).

On the set-up of data set [5]: method as in PMID 19364967. The settings on record: ref [46]; cited from earlier work.

As to `N.N.O=C([O-])C1(C(=O)[O-])CCC1.[Pt+2]` [carboplatin], the “Clearance and volume of distribution of carboplatin with co-dosed veliparib (drug-drug interaction)” value in [1] (0, 20 or 60 mg/kg veliparib doses) is listed as “not significantly different”. Also, the “Half-life (t1/2)” value in [1] (beige SCID mice plasma) is 21 min. Also, in data set [1] (mice plasma), the CL is listed as 34.2 mL/h, the “Interindividual variability on CL” value turned out to be 6% and the Vd (usually the apparent volume that relates the amount in the body to the concentration in plasma or blood) is 17.5 mL.

With `C[C@]1(c2nc3c(C(N)=O)cccc3[nH]2)CCCN1` [veliparib], the IC50 (in general, the concentration at which inhibition is half-maximal) with PARP1 is […]; in the data set with PARP, 57.4 µM. Moreover, the “TN patients without pathologic complete response (pCR)” value in the data set on TNBC is given as “approximately 42%”. In addition, the Kp (in general, the ratio of the level in a tissue or fluid to that in plasma or blood) is 0.75 in [2] (mouse, tumor (HCC70 xenograft), oral, Penetration from plasma to xenograft tumor (ratio, RPT), HCC70 xenografts); 0.36 in data set [2] (mouse, tumor (MDA-MB-231 xenograft), oral, Penetration from plasma to xenograft tumor (ratio, RPT), MDA-MB-231 xenografts); 0.46 in data set [2] (mouse, tumor (MDA-MB-436 xenograft), oral, Penetration from plasma to xenograft tumor (ratio, RPT), MDA-MB-436 xenografts); 0.35 to 0.74 in data set [2] (mouse, tumor (TNBC xenografts), oral, Veliparib transferred from plasma to TNBC xenografts, across the three xenograft types). In addition, the Km (as a rule, the concentration of substrate that gives half-maximal velocity) in data set [2] (beige SCID, mouse, plasma, oral) came to […]. Further, the “Interindividual variability on F plasma” value in [2] (mouse PK model) was 13%. Also, the “Interindividual variability on tumor penetration (between tumors in different animals)” value in data set [2] (mouse PK model) is listed as […]. In addition, the “Intra-animal variability tumor (within the tumor sections of an animal)” value in data set [2] (mouse PK model) was 28%. Moreover, the Q tumor in data set [2] (mouse PK model) was determined as 0.0694 mL/h. This compound also displayed a V in data set [2] (mouse plasma PK model) of 10.1 mL. The compound also registered a V2 in data set [2] (mouse plasma PK model) of 0.0168 mL. Besides, the Vmax in data set [2] (mouse plasma PK model) was 1.86 mL/h. In data set [2] (mouse plasma PK model, oral gavage), this compound had a KA of 2.11 h⁻¹. The “KPT, rate of transfer from plasma to tumor” value in data set [2] (mouse tumor PK model) turned out to be […]. The “Protein binding capacity in human plasma” value in data set [3] is listed as 51%. Further, the Sensitivity in vitro entry with HCC70 is reported as “insensitive”. Besides, the “Xenograft tissues below the limit of detection by LC-MS” value in [4] (20 mg/kg dose) stood at 42%. Moreover, the “Median conc. (RSE %)” value was 0.43 (16) mg/L in data set [4] (HCC70 xenograft tissue, 60 mg/kg); 0.27 (18) mg/L in [4] (MDA-MB-231 xenograft tissue, 60 mg/kg); […] in [4] (MDA-MB-436 xenograft tissue, 60 mg/kg); 0.12 (31) mg/L in data set [4] (TNBC xenograft tissue (all cell lines), 20 mg/kg, 3 h after last dose); 0.36 (12) mg/L in data set [4] (TNBC xenograft tissue (all cell lines), 60 mg/kg, 3 h after last dose, 60 mg/kg); […] in data set [4] (liver, 20 mg/kg, 3 h after last dose). For the same compound, the “Median conc. (RSE %)” value in data set [4] (liver, 60 mg/kg, 3 h after last dose, 60 mg/kg) is reported as 1.77 (14) mg/L; in data set [4] (muscle, 20 mg/kg, 3 h after last dose), 0.12 (70) mg/L; in [4] (muscle, 60 mg/kg, 3 h after last dose), […]; in data set [4] (plasma, veliparib 20 mg/kg three times daily, 3 h post dose), 0.19 (10) mg/L; in [4] (plasma, veliparib 60 mg/kg three times daily, 3 h post dose), 0.86 (11) mg/L. Further, the concentration at 3 h in [4] (oral, liver, 60 mg/kg, 3 h after last dose) worked out at 1770 ng/mL; in [4] (oral, plasma, veliparib 60 mg/kg three times daily, 3 h post dose), 860 ng/mL; in data set [4] (tumor (HCC70 xenograft), oral, HCC70 xenograft tissue, 20 mg/kg), 130 ng/mL; in data set [4] (tumor (HCC70 xenograft), oral, HCC70 xenograft tissue, 60 mg/kg) it was 430 ng/mL; in data set [4] (tumor (MDA-MB-231 xenograft), oral, MDA-MB-231 xenograft tissue, 20 mg/kg) it was 10 ng/mL; in [4] (tumor (MDA-MB-231 xenograft), oral, MDA-MB-231 xenograft tissue, 60 mg/kg), 270 ng/mL. Also, the concentration at 3 h in [4] (tumor (MDA-MB-436 xenograft), oral, MDA-MB-436 xenograft tissue, 20 mg/kg) was found to be 50 ng/mL; in data set [4] (tumor (MDA-MB-436 xenograft), oral, MDA-MB-436 xenograft tissue, 60 mg/kg), […]; in data set [4] (tumor (TNBC xenograft, oral), TNBC xenograft tissue (all cell lines), 60 mg/kg, 3 h after last dose) it was 360 ng/mL. Further, the “Renal clearance as share of elimination” value in [5] was 70%.
